Measurements from US20110183978A1, “Phenylpyri(mi)dinylazoles” (Bayer CropScience AG, priority 2009, published 2011).

experiment: physchem; conditions: LogPA

Point of comparison: CC(C)S(=O)(=O)Nc1cc(-c2cn(CC(F)F)nc2-c2ccc(F)cc2)ccn1 [Compound 234], chromatographic logP 3.96. Against it:
- Fc1ccc(-c2nn(C3CCCCC3)cc2-c2ccncc2)cc1 [Compound 168] — lower, 1.91
- CC(C)Nc1nccc(-c2c[nH]nc2-c2ccc(F)cc2)n1 [Compound 172] — lower, 1.37
- N#Cc1[nH]nc(-c2ccc(F)cc2)c1-c1ccncc1 [Compound 175] — lower, 1.08
- FCC(CF)n1cc(-c2ccncc2)c(-c2ccc(F)cc2)n1 [Compound 177] — lower, 1.16
- CC(C)Cn1cc(-c2ccnc(NCc3ccccc3)n2)c(-c2ccc(F)cc2)n1 [Compound 182] — lower, 3.15
- CC(C)Cn1cc(-c2ccnc(N(C(=O)C(C)C)C(C)C)n2)c(-c2ccc(F)cc2)n1 [Compound 185] — higher, 4.25
- CC(C)Cn1cc(-c2ccnc(N(C(=O)C(C)(C)C(=O)C(C)C)C(C)C)n2)c(-c2ccc(F)cc2)n1 [Compound 186] — lower, 3.02
- CC(C)Cn1cc(-c2ccnc(N3CCCC3=O)c2)c(-c2ccc(F)cc2)n1 [Compound 187] — lower, 3.19
- CC(C)Cn1cc(-c2ccnc(N(C(=O)C(C)C)C(=O)C(C)C)n2)c(-c2ccc(F)cc2)n1 [Compound 188] — higher, 4.74
- CCn1cc(-c2ccnc(NC(=O)Cc3ccccc3)c2)c(-c2ccc(F)cc2)n1 [Compound 190] — lower, 2.72
- CCC(=O)Nc1cc(-c2c(-c3ccc(Cl)cc3F)nn(C)c2C(F)(F)F)ccn1 [Compound 197] — lower, 3.32
- COCC(=O)Nc1cc(-c2c(-c3cc(F)c(C#N)cc3F)nn(C)c2OC(F)F)ccn1 [Compound 199] — lower, 2.59
- COCC(=O)Nc1cc(-c2c(-c3ccc(F)cc3O)nn(C)c2OC(F)F)ccn1 [Compound 201] — lower, 2.38
- COCC(=O)Nc1cc(-c2c(-c3ccc(Cl)cc3F)nn(C)c2C(F)(F)F)ccn1 [Compound 202] — lower, 3.45
- COCC(=O)Nc1cc(-c2cn(C3CCN(C(=O)OC(C)(C)C)CC3)nc2-c2ccc(F)cc2)ccn1 [Compound 204] — lower, 3.51
- CCOC(=O)Nc1cc(-c2cn(C(C)c3ccccc3F)nc2-c2ccc(F)cc2)ccn1 (stereo not shown) [Compound 263] — lower, 3.65
- CCOC(=O)Nc1cc(-c2cn(Cc3ccccc3F)nc2-c2ccc(F)cc2)ccn1 [Compound 266] — lower, 3.24
- CC(C)C(=O)Nc1cc(-c2cn(OC3CCCC3)nc2-c2ccc(F)cc2)ccn1 [Compound 270] — lower, 3.65
- CC(C)Cn1cc(-c2ccnc(S(C)(=O)=O)n2)c(-c2ccc(F)cc2)n1 [Compound 287] — lower, 2.9
- Cc1csc2c(-c3cn(CC(C)C)nc3-c3ccc(F)cc3)ncnc12 [Compound 288] — within 0.2 log units, 3.85
- Cc1csc2c(-c3cn(CC4CC4)nc3-c3ccc(F)cc3)ncnc12 [Compound 289] — lower, 3.45
- CCC(=O)Nc1cc(-c2c(-c3ccc(F)cc3)nn(C(C)C)c2C(F)(F)F)ccn1 [Compound 304] — within 0.2 log units, 4.07
- CC(C)C(=O)Nc1cc(-c2cn(Cc3cccc(C#N)c3)nc2-c2ccc(F)cc2)ccn1 [Compound 308] — lower, 2.69
- CC(C)n1cc(-c2ncnc3c2CCCN3)c(-c2ccc(F)cc2)n1 [Compound 311] — lower, 1.29
- CC(C)n1cc(-c2ccnc(NC(c3ccc(F)cc3)C(F)(F)F)c2)c(-c2ccc(F)cc2)n1 (stereo not shown) [Compound 324] — within 0.2 log units, 3.88
- CC(C)n1cc(-c2ccnc(NC(c3ccccc3)C(F)(F)F)c2)c(-c2ccc(F)cc2)n1 (stereo not shown) [Compound 325] — lower, 3.66
- CCn1cc(-c2ccnc(NC(=O)CCCCC(=O)OC)c2)c(-c2ccc(F)cc2)n1 [Compound 330] — lower, 2.16
- CCn1cc(-c2ccnc(NC(=O)c3cn(C)nc3C(F)F)c2)c(-c2ccc(F)cc2)n1 [Compound 333] — lower, 2.47
- CCn1cc(-c2ccnc(NC(=O)c3ccsc3C(F)F)c2)c(-c2ccc(F)cc2)n1 [Compound 334] — lower, 3.27
- CCn1cc(-c2ccnc(NC(=O)CCc3ccc(Cl)cc3)c2)c(-c2ccc(F)cc2)n1 [Compound 336] — lower, 3.32
- Cn1cc(-c2ccnc(NC(=O)CCc3ccccc3)c2)c(-c2ccc(F)cc2)n1 [Compound 343] — lower, 2.54
- Cn1cc(-c2ccnc(NC(=O)c3ccc(F)cc3)c2)c(-c2ccc(F)cc2)n1 [Compound 344] — lower, 2.61
- COCCOCC(=O)Nc1cc(-c2cn(C)nc2-c2ccc(F)cc2)ccn1 [Compound 345] — lower, 1.96
- COCC(=O)Nc1nccc(-c2cn(C(C)C)nc2-c2ccc(F)cc2)n1 [Compound 354] — lower, 2.37
- CC(C)C(=O)Nc1nccc(-c2cn(C(C)C)nc2-c2ccc(F)cc2)n1 [Compound 355] — lower, 2.55
- CC(C)n1cc(-c2ccnc(NC(=O)C3CC3)n2)c(-c2ccc(F)cc2)n1 [Compound 356] — lower, 2.49
- CC(=O)Nc1nccc(-c2cn(CC(C)C)nc2-c2ccc(F)cc2)n1 [Compound 357] — lower, 2.44
- COCCn1cc(-c2ccnc(NC(C)C)n2)c(-c2ccc(F)cc2)n1 [Compound 358] — lower, 1.79
- CC(C)Nc1nccc(-c2cn(CCCl)nc2-c2ccc(F)cc2)n1 [Compound 359] — lower, 2.05
- CCC(C)n1cc(-c2ccnc(NC(C)C)n2)c(-c2ccc(F)cc2)n1 (stereo not shown) [Compound 360] — lower, 2.41
- CC(C)Cn1cc(-c2ccnc(NC(C)C3CC3)n2)c(-c2ccc(F)cc2)n1 (stereo not shown) [Compound 372] — lower, 2.73

same assay, conditions: LogPA (logP of the stated pure compound or, in a mixture, of the main isomer, 1-substituted 3-aryl-1H-pyrazole)

Point of comparison: CC(C)Cn1cc(-c2ccnc3c2CC(=O)N3)c(-c2ccc(F)cc2)n1 [Compound 147], chromatographic logP 2.6. Against it:
- Fc1ccc(-c2nn(Cc3ncc[nH]3)cc2-c2ccncc2)cc1 [Compound 143] — lower, 0.41
- CC(=O)OCCn1cc(-c2ccncc2)c(-c2ccc(F)cc2)n1 [Compound 145] — lower, 1.05
- C=CCNc1nccc(-c2cnn(CC(C)C)c2-c2ccc(F)cc2)n1 [Compound 149] — lower, 2.37

same assay, conditions: pH 2.3, LogP (pH 2.3)

Point of comparison: CCn1cc(-c2ccnc(N)c2)c(-c2ccc(F)cc2)n1 [[III-3], 4-[1-Ethyl-3-(4-fluorophenyl)-1H-pyrazol-4-yl]pyridin-2-amine], chromatographic logP 0.97. Against it:
- CC(C)n1cc(-c2ccnc(N)c2)c(-c2ccc(F)cc2)n1 [[III-1], 4-[3-(4-Fluorophenyl)-1-isopropyl-1H-pyrazol-4-yl]pyridin-2-amine] — higher, 1.22
- COCCn1cc(-c2ccnc(N)c2)c(-c2ccc(F)cc2)n1 [[III-2], 4-[3-(4-Fluorophenyl)-1-(2-methoxyethyl)-1H-pyrazol-4-yl]pyridin-2-amine] — within 0.2 log units, 0.98
- Nc1cc(-c2cn(CC(F)F)nc2-c2ccc(F)cc2)ccn1 [[III-4], 4-[1-(2,2-Difluoroethyl)-3-(4-fluorophenyl)-1H-pyrazol-4-yl]pyridin-2-amine] — within 0.2 log units, 1.03
- Cn1cc(-c2ccnc(N)c2)c(-c2ccc(F)cc2)n1 [[III-5], 4-[3-(4-Fluorophenyl)-1-methyl-1H-pyrazol-4-yl]pyridin-2-amine] — lower, 0.71

same assay, conditions: pH 2.7, logP (pH 2.7)

Point of comparison: Nc1cc(-c2cn(CC(F)F)nc2-c2ccc(F)cc2)ccn1 [[III-4], 4-[1-(2,2-Difluoroethyl)-3-(4-fluorophenyl)-1H-pyrazol-4-yl]pyridin-2-amine], chromatographic logP 1.03. Against it:
- CC(C)n1cc(-c2ccnc3ccccc23)c(-c2ccc(F)cc2)n1 [[I-1], 4-[3-(4-Fluorophenyl)-1-isopropyl-1H-pyrazol-4-yl]quinoline] — higher, 2.23
- CCC(=O)Nc1cc(-c2cn(CCOC)nc2-c2ccc(F)cc2)ccn1 [[I-2], N-{4-[3-(4-Fluorophenyl)-1-(2-methoxyethyl)-1H-pyrazol-4-yl]pyridin-2-yl}propanamide] — higher, 1.61
- N#Cc1cccc(Cn2cc(-c3ccncc3)c(-c3ccc(F)cc3)n2)c1 [[I-3], 3-{[3-(4-Fluorophenyl)-4-(pyridin-4-yl)-1H-pyrazol-1-yl]methyl}benzonitrile] — higher, 1.51
- N#Cc1cccc(Cn2ncc(-c3ccncc3)c2-c2ccc(F)cc2)c1 [[I-4], 3-{[5-(4-Fluorophenyl)-4-(pyridin-4-yl)-1H-pyrazol-1-yl]methyl}benzonitrile] — higher, 1.38
- CC(C)n1cc(-c2ccnc(NC(=O)C3CC3)c2)c(-c2ccc(F)cc2)n1 [[I-c-1], N-{4-[3-(4-Fluorophenyl)-1-isopropyl-1H-pyrazol-4-yl]pyridin-2-yl}cyclopropanecarboxamide] — higher, 2.07
- CC(C)Cn1cc(-c2ccnc(NC(=O)C(C)C)c2)c(-c2ccc(F)cc2)n1 [[I-c-2], N-{4-[3-(4-fluorophenyl)-1-isobutyl-1H-pyrazol-4-yl]pyridin-2-yl}-2-methylpropanamide] — higher, 2.89
- CC(C)n1cc(-c2ccncc2)c(-c2c(F)cccc2F)n1 [[I-d-1], 4-[3-(2,6-Difluorophenyl)-1-isopropyl-1H-pyrazol-4-yl]pyridine] — higher, 1.4
- CC(C)n1ncc(-c2ccncc2)c1-c1c(F)cccc1F [[I-d-2], 4-[5-(2,6-Difluorophenyl)-1-isopropyl-1H-pyrazol-4-yl]pyridine] — higher, 1.54
- CCC(=O)Nc1nccc(-c2cn(C(C)C)nc2-c2ccc(F)cc2)n1 [[I-g-1], N-{4-[3-(4-Fluorophenyl)-1-isopropyl-1H-pyrazol-4-yl]pyrimidin-2-yl}propanamide] — higher, 2.35
- CC(C)n1cc(-c2ccnc(N)c2)c(-c2ccc(F)cc2)n1 [[III-1], 4-[3-(4-Fluorophenyl)-1-isopropyl-1H-pyrazol-4-yl]pyridin-2-amine] — within 0.2 log units, 1.22
- COCCn1cc(-c2ccnc(N)c2)c(-c2ccc(F)cc2)n1 [[III-2], 4-[3-(4-Fluorophenyl)-1-(2-methoxyethyl)-1H-pyrazol-4-yl]pyridin-2-amine] — within 0.2 log units, 0.98
- CCn1cc(-c2ccnc(N)c2)c(-c2ccc(F)cc2)n1 [[III-3], 4-[1-Ethyl-3-(4-fluorophenyl)-1H-pyrazol-4-yl]pyridin-2-amine] — within 0.2 log units, 0.97
- Cn1cc(-c2ccnc(N)c2)c(-c2ccc(F)cc2)n1 [[III-5], 4-[3-(4-Fluorophenyl)-1-methyl-1H-pyrazol-4-yl]pyridin-2-amine] — lower, 0.71
- CC(C)n1cc(-c2ccnc(N)n2)c(-c2ccc(F)cc2)n1 [[III-a-1], 4-[3-(4-Fluorophenyl)-1-isopropyl-1H-pyrazol-4-yl]pyrimidin-2-amine] — higher, 1.54
- CC(C)C(=O)Nc1cc(Br)ccn1 [[IV-c-1], N-(4-bromopyridin-2-yl)-2-methylpropanamide] — higher, 2.09
- Cc1[nH]nc(-c2ccc(F)cc2)c1-c1ccncc1 [[IX-b-1], 4-[3-(4-Fluorophenyl)-5-methyl-1H-pyrazol-4-yl]pyridine] — lower, 0.6
- Fc1ccc(-c2[nH]nc(C3CC3)c2-c2ccncc2)cc1 [[IX-b-2], 4-[3-(4-Fluorophenyl)-5-cyclopropyl-1H-pyrazol-4-yl]pyridine] — within 0.2 log units, 0.92
- Cn1cc(Br)c(-c2ccc(F)cc2)n1 [[V1-8], 4-Bromo-3-(4-fluorophenyl)-1-methyl-1H-pyrazole] — higher, 2.86
